Assay results taken from patent publication US20250281596A1, “IONIZABLE CATIONIC COMPOUND” (priority 2021, published 2025).

Tested on: not listed separately
Assay: physchem
Format: physicochemical
Settings: saRNA-LNP with the lipid; TNS, pH 4 to 9.5, 25° C.; read-out: Apparent pKa
Method: In a black 96-well plate, solutions of saRNA-LNP (final assay concentration 2 μg/mL total RNA) in a series of buffers ranging from pH 4 to 9.5 were prepared. Buffers between pH 4 to 7.6 were prepared from disodium phosphate and citric acid. Buffers from 7.8 to 9.5 were prepared by titrating tris buffer with 10 N sodium hydroxide. To each well was added 6-(p-Toluidino)-2-naphthalenesulfonic acid sodium salt (TNS) in water to a final assay concentration of 6 μM. The fluorescence was read on a plate reader at 25° C. with an excitation setting of 321 nm and an emission setting of 445 nm. The intensity values were plotted as a function of pH using GraphPad Prism and were fit with a sigmoidal dose response curve. The apparent pKa was determined as the EC50 of this curve where half of the ionizable amines are expected to be protonated (see FIG. 1).

Compound | pKa
CCCCCCCCCC(CCCCCCCCC(=O)OCC(CCCC)CCCCCC)OC(=O)CC1CCN(C)CC1 (stereo not drawn) [SL14] | 6.63
CCCCCCCCCC(CCCCCCCCC(=O)OCC(CCCC)CCCCCC)OC(=O)CCC1CCN(C)CC1 (stereo not drawn) [SL15] | 7.13

Tested on: BHK-21 cells
Assay: In vitro potency: transfection of BHK-21 cells, 96-well imaging (Cytation 5)
Format: cell-based
Settings: LNPs encapsulating saRNA expressing H5 and N1, FIG. 3
Method: For LNPs prepared with SL16, SL17, SL18, and SL21, a similar assay was performed in a 96-well plate using BHK-21 cells and analysed using a Cytation 5 Cell Imaging Multimode Reader (Agilent). The results of this assay were analysed in the same way as described for the flow cytometry assay, except only an H5-antibody was used for detection. In vitro transfection potency was determined for LNPs containing lipids SL16, SL17, SL18, and SL21. […] SL16 LNP, SL17 LNP, and SL18 LNP were formulated using a flow-rate ratio of 2:1. SL17 LNP2, SL18 LNP2, and SL21 were formulated using a flow-rate ratio of 3:1 (FIG. 3).

Compound | Ability to transfect cells (H5-antibody detection)
CCCCCCCCCC(CCCCCCCCC(=O)OCC(CCCC)CCCCCC)OC(=O)C1CCN(CCCO)CC1 (stereo not drawn) [SL16] | able to transfect BHK-21 cells in vitro
CCCCCCCCCC(CCCCCCCCC(=O)OCC(CCCC)CCCCCC)OC(=O)CC1CCN(CCCO)CC1 (stereo not drawn) [SL17] | able to transfect BHK-21 cells in vitro
CCCCCCCCCC(CCCCCCCCC(=O)OCC(CCCC)CCCCCC)OC(=O)CCC1CCN(CCCO)CC1 (stereo not drawn) [SL18] | able to transfect BHK-21 cells in vitro
CCCCCCCCCC(CCCCCCCCOC(=O)CC(CCCC)CCCCCC)OC(=O)CC1CCN(CCCO)CC1 (stereo not drawn) [SL21] | able to transfect BHK-21 cells in vitro
